Laboratory results published in patent US10184137B2, “Method of producing isoprene monomer” (AJINOMOTO CO., INC., priority 2014, dated 2019).
Where a name gives a salt, the structure may show the parent alone. Values belong to the molecule of their own block, whether it stands above or below them.

Experiments:
[1] = target: T1, Methanosarcina mazei mevalonate kinase (mma), wild type, SEQ ID NO:12, N-terminal His-tag (Methanosarcina mazei, UniProt Q8PW39); assay: Inhibition of mma-derived mevalonate kinase by DMAPP, GPP, FPP or DPM; format: biochemical
T1 sequence (Q8PW39 1-301): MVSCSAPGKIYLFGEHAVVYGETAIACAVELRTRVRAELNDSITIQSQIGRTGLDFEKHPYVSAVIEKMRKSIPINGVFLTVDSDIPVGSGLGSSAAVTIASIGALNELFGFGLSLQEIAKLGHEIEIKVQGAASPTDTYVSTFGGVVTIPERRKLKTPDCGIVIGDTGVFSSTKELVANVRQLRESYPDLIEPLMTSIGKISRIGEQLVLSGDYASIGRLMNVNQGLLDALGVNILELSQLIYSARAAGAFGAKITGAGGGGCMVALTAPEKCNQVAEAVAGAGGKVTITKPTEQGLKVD
Description: (§1) Km value was calculated by Lineweaver-Burk plot.
(§2) Since GPP and FPP solutions contain methanol, methanol which was needed to keep the same methanol level at the addition to the reaction system was added to the reaction solution, which was designated as control.
(§3) Effect of 1 mM diphosphomevalonate (DPM) on each enzyme was also studied.

[2] = target: Corynebacterium variabile mevalonate kinase (cva), wild type, SEQ ID NO:3, N-terminal His-tag (Corynebacterium variabile, UniProt A0A0X2NLH5); assay: Inhibition of cva-derived mevalonate kinase by DMAPP, GPP, FPP or DPM; format: biochemical
Description: as §1, §2, §3

[3] = target: T2, Methanosaeta concilii mevalonate kinase (mcl), wild type, SEQ ID NO:6, N-terminal His-tag (Methanothrix soehngenii, UniProt F4BZB3); assay: Inhibition of mcl-derived mevalonate kinase by DMAPP, GPP, FPP or DPM; format: biochemical
T2 sequence (F4BZB3 1-317): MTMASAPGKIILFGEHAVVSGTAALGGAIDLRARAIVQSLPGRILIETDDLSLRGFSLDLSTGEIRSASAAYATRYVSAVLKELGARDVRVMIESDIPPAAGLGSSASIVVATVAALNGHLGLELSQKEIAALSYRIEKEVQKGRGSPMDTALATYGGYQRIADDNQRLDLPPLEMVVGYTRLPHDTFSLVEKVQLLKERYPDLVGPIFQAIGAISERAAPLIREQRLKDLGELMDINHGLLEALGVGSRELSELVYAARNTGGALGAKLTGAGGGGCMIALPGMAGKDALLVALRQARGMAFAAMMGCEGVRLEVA
Description: as §1, §2, §3

[4] = target: Methanocella paludicola mevalonate kinase (mpd), wild type, SEQ ID NO:1, N-terminal His-tag (Methanocella paludicola, UniProt D1YZ39); assay: Inhibition of mpd-derived mevalonate kinase by DMAPP, GPP, FPP or DPM; format: biochemical
Description: as §1, §2, §3

[5] = target: Nitrosopumilus maritimus mevalonate kinase (nmr), wild type, SEQ ID NO:9, N-terminal His-tag (Nitrosopumilus maritimus, UniProt A9A427); assay: Inhibition of nmr-derived mevalonate kinase by DMAPP, GPP, FPP or DPM; format: biochemical
Description: as §1, §2, §3

[6] = target: T2, Methanosaeta concilii mevalonate kinase (mcl), wild type, SEQ ID NO:6, N-terminal His-tag; assay: biochemical
[7] = substrate: Nc1ncnc2c1ncn2[C@@H]1O[C@H](COP(=O)(O)OP(=O)(O)OP(=O)(O)O)[C@@H](O)[C@H]1O; assay: purified protein, by the assay type; conditions: 5 mM potassium mevalonate, pH 7.6, 30° C., Lineweaver-Burk plot
Description: Each obtained plasmid was used for transformation of E. coli BL21(DE3). […] When OD600 reached approximately 0.5, 0.1 mM IPTG (for cva, mma, nmr, and sce) or 1 mM (for mcl and mpd) of IPTG was added, and then the mixture was kept at 20° C. overnight to induce the target protein. […] After centrifugation (28,000×g, 30 min), the supernatant was adsorbed onto His-Trap HP (GE Healthcare) to elute the target protein by linear concentration gradient of Imidazol (final concentration 0.5 M). Obtained protein was dialyzed by using an external solution composed of 20 mM Tris-HCl (pH 8.0) containing 1 mM DTT and 50 mM NaCl. Dialyzed protein was designated as purified enzyme. Protein quantity was measured with Bio-RAD protein assay kit and BSA standard condition.
Decrease in absorbance at 340 nm at 30° C. was measured to determine the enzyme activity. JASCO Corporation's spectrophotometer (V-650) was used in this study. […] Km value was calculated by Lineweaver-Burk plot.

Sequence of Corynebacterium variabile mevalonate kinase (cva), wild type, SEQ ID NO:3, N-terminal His-tag (A0A0X2NLH5 entry or part of it): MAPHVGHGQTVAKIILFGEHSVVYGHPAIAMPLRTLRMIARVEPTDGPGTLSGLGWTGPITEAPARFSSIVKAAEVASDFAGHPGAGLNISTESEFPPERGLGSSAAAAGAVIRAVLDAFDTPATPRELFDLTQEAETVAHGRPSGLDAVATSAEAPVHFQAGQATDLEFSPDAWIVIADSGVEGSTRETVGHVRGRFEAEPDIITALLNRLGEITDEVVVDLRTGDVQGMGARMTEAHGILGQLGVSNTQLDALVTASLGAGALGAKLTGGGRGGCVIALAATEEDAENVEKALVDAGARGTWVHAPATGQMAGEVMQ
Sequence of Nitrosopumilus maritimus mevalonate kinase (nmr), wild type, SEQ ID NO:9, N-terminal His-tag (A9A427 1-313): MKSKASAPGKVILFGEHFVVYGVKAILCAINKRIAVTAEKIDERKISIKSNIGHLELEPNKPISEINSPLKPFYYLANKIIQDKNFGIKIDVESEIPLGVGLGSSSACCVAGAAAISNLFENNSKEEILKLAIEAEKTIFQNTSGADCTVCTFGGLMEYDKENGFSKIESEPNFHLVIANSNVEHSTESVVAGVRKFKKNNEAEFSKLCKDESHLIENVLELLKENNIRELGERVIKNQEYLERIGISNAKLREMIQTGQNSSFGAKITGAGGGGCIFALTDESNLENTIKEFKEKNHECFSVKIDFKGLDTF

Enzyme activity with 0.1 mM GPP ([1]; 0.1 mM GPP, control 0.21): 0.2009 dABS/min | Enzyme activity with 0.1 mM GPP ([2]; 0.1 mM GPP, control 0.08338): 0.07532 dABS/min | Enzyme activity with 0.1 mM GPP ([3]; mcl, 0.1 mM GPP, control 0.1482): 0.1538 dABS/min | Enzyme activity with 0.1 mM GPP ([4]; 0.1 mM GPP, control 0.15734): 0.1589 dABS/min | Enzyme activity with 0.1 mM GPP ([5]; 0.1 mM GPP, control 0.2438): 0.2427 dABS/min
Molecule: CC(C)=CCC/C(C)=C/COP(=O)(O)OP(=O)(O)O [GPP, geranyl phyrophosphate ammonium salt]

Inhibition by FPP ([1]; 0.1 mM FPP): no other enzymes were inhibited strongly | Enzyme activity with 0.1 mM FPP ([1]; 0.1 mM FPP, control 0.21): 0.2059 dABS/min | Inhibition by FPP ([2]; 0.1 mM FPP): inhibited | Enzyme activity with 0.1 mM FPP ([2]; 0.1 mM FPP, control 0.08338): 0.04775 dABS/min | Inhibition by FPP ([3]; mcl, 0.1 mM FPP): no other enzymes were inhibited strongly | Enzyme activity with 0.1 mM FPP ([3]; mcl, 0.1 mM FPP, control 0.1482): 0.1562 dABS/min | Inhibition by FPP ([4]; 0.1 mM FPP): no other enzymes were inhibited strongly | Enzyme activity with 0.1 mM FPP ([4]; 0.1 mM FPP, control 0.15734): 0.1594 dABS/min | Inhibition by FPP ([5]; 0.1 mM FPP): no other enzymes were inhibited strongly | Enzyme activity with 0.1 mM FPP ([5]; 0.1 mM FPP, control 0.2438): 0.224 dABS/min
Molecule: CC(C)=CCC/C(C)=C/CC/C(C)=C/COP(=O)(O)OP(=O)(O)O [FPP, farnesyl pyrophosphate ammonium salt]

Molecule: C=C(C)CCOP(=O)(O)OP(=O)(O)O.N.N.N [IPP, Isopentenyl pyrophosphate tri-ammonium salt]
Enzyme activity with 33.6 μM IPP ([6]; mcl, 33.6 μM IPP, control (MeOH) 0.15939): 0.158 dABS/min | Enzyme activity with 168 μM IPP ([6]; mcl, 168 μM IPP, control (MeOH) 0.15939): 0.1606 dABS/min

Molecule: CC(C)=CCOP(=O)(O)OP(=O)(O)O.N.N.N [DMAPP, Dimethylallyl diphosphate ammonium salt]
Enzyme activity with 5 mM DMAPP ([1]; 5 mM DMAPP, control 0.21): 0.1904 dABS/min | Enzyme activity with 5 mM DMAPP ([2]; 5 mM DMAPP, control 0.08338): 0.0786 dABS/min | Enzyme activity with 5 mM DMAPP ([3]; mcl, 5 mM DMAPP, control 0.1482): 0.1806 dABS/min | activation at 5000 µM ([3]; read-out: Increase of activity from that of the control): 20% | Enzyme activity with 5 mM DMAPP ([4]; 5 mM DMAPP, control 0.15734): 0.1528 dABS/min | Enzyme activity with 33.6 μM DMAPP ([6]; mcl, 33.6 μM DMAPP, control (H2O) 0.15403): 0.1527 dABS/min | Enzyme activity with 168 μM DMAPP ([6]; mcl, 168 μM DMAPP, control (H2O) 0.15403): 0.1552 dABS/min | activation at 5000 µM ([6]; read-out: Increase of relative activity): 20% | Enzyme activity with 5 mM DMAPP ([5]; 5 mM DMAPP, control 0.2438): 0.231 dABS/min

B1: Methanocella paludicola mevalonate kinase (mpd), wild type, SEQ ID NO:1, N-terminal His-tag (Methanocella paludicola SANAE) (protein)
chain: MTMCSAPGKVFLFGEHAVVYGKRAIACAIDLRTTVEVSRKSRGVHIHSAFKDEPDKNLYIKTAVKRMQKCADIRNVNIAVSSRIPVASGLGSSAAVTVATIGALNEEFSAGLSKKDIAYMAYQTELEVQGAASPTDTFVSTMGGTVVVPDMRTLPPITCGIVVGHTGISKSTSRMVSRVRTLKEKYPDVIDGIMDSIGDISARGEDLIKQNDYRSIGELMNVNQGLLDALGITIPELSLQIYAARQHGAYGAKITGAGGGGCMVAICDDKNCKEIATAIGRSYGDSFISKPTAEGIFIQ
Km ([7]; other: mpd): 119 ± 2.1 µM

B2: Methanosaeta concilii mevalonate kinase (mcl), wild type, SEQ ID NO:6, N-terminal His-tag (Methanothrix soehngenii GP6) (protein)
chain: T2 sequence (F4BZB3 1-317)
Km ([7]; other: mcl): 74 ± 1.4 µM
